# Literature values, collected in US20110226621A1, “TARGET RECOGNITION MOLECULE AND A METHOD FOR IMMOBILIZING THE SAME” (Sharp Kabushiki Kaisha, priority 2009, published 2011).
# Where two headings read alike, the source gives them in different places.
# Conditions: individual amino acid
# [1] = Table 1 repeated in Example 1-1
SMILES,isoelectric point (Table 1 in summary),isoelectric point [1]
N[C@@H](CC(=O)O)C(=O)O [aspartic acid],2.77,2.77
NCCCC[C@H](N)C(=O)O [lysine],9.75,9.75
N[C@@H](Cc1ccc(O)cc1)C(=O)O [tyrosine],5.66,5.66
NCC(=O)O [glycine],5.97,5.97
O=C(O)[C@@H]1CCCN1 [proline],6.30,6.30
N[C@@H](Cc1ccccc1)C(=O)O [phenylalanine],5.48,5.48
N=C(N)NCCC[C@H](N)C(=O)O [arginine],10.76,10.76
N[C@@H](Cc1c[nH]cn1)C(=O)O [histidine],7.59,7.59
N[C@@H](CCC(=O)O)C(=O)O [glutamic acid],3.22,3.22
N[C@@H](Cc1c[nH]c2ccccc12)C(=O)O [tryptophan],5.89,5.89

# Now from value to compound:
isoelectric point (Table 1 in summary),isoelectric point [1],SMILES
5.05,5.05,N[C@@H](CS)C(=O)O [cysteine]
6.00,6.00,C[C@H](N)C(=O)O [alanine]
5.68,5.68,N[C@@H](CO)C(=O)O [serine]
6.05,6.05,CC[C@H](C)[C@H](N)C(=O)O [isoleucine]
6.16,6.16,C[C@@H](O)[C@H](N)C(=O)O [threonine]
5.74,5.74,CSCC[C@H](N)C(=O)O [methionine]
5.41,5.41,NC(=O)C[C@H](N)C(=O)O [asparagine]
5.96,5.96,CC(C)[C@H](N)C(=O)O [valine]
